{"source": "patent US20240091227A1", "about": "“Use Of 2-Phenyl-6-(1H-Imidazol-1-YL) Quinazoline For Treating Neurodegenerative Diseases, Preferably Alzheimer's Disease” (ROTTAPHARM BIOTECH S.R.L., priority 2019, published 2024)", "system": "PKCε", "assay": "PKCε translocation to the plasma membrane in cultured dorsal root ganglia neurons", "type": "cell-based, rat", "details": "idazoxan pre-applied 10 minutes at 10 and 100 μM, toward 1 μM CR4056", "method": "FIG. 1 reports the time-course (A) and washout (B) of CR4056 effect on PKCF translocation induced by bradykinin (BK 1 μM). In Panel A, open symbols represent the percentage of neurons positive for PKCF translocation following BK stimulation in absence of the drug. Filled symbols represent neurons pre-incubated with CR4056 ([…]) for different times before the stimulation for 30 seconds with BK+CR4056. The first filled symbol indicates the effect of CR4056 co-incubated for 30 seconds with BK, the second filled symbol indicates 10 seconds of pre-incubation of CR4056, and the last indicates 24 hours of pre-incubation of CR4056. […] In Panel B, BK-induced PKCF translocation was evaluated before (open symbol) and after pre-incubation of CR4056 ([…]) at different time intervals (from 10 minutes to 8 hours) (filled symbols). The first datapoint was obtained at the end of the 10 minute pre-incubation, when CR4056 was still present. The subsequent datapoints were obtained after extensive rinsing to ensure complete removal of the drug from extracellular solution (n=3).\nRat dorsal root ganglia (DRGs) were obtained from freshly isolated spines after carefully removing nerve trunks and connective tissue. Larger ganglia, chopped into 2-4 smaller pieces were then incubated for 1 hour at 37° C. in 0.125% collagenase (Worthington, Freehold, NJ) dissolved in Dulbecco's modified Eagle's medium (DMEM) containing 10% fetal bovine serum (FBS) plus 1% penicillin/streptomycin and 1% L-glutamine (Euroclone, Milan, Italy). After enzymatic digestion, ganglia were mechanically dissociated and neurons plated at a density such that neurons would cover about 30% of coverslip surface in a single layer, in petri dishes containing wells with a glass bottom coverslip (pre-coated with 10 μg/mL poly-L-lysine and 20 µg/ml laminin, Sigma-Aldrich, Milan, Italy). Cells were incubated for 2-3 days in DMEM as described above, plus 1.5 μg/ml cytosine 1-d-arabinofuranoside (ARA-C, Sigma-Aldrich) to slow down proliferation of non neuronal cells, and 100 ng/ml nerve growth factor (NGF, Sigma-Aldrich) to increase cell health and the and the expression of receptors which are linked to PKCF translocation upon stimulation. Activation of membrane receptors coupled to phospholipase C pathway leads to PKCF translocation from cytoplasm to the plasma membrane. In order to study PKCε behaviour a well established technique was employed (Vellani V, Neuroscience, 2006). […] CR4056 was pre-applied in the culture medium for 10 min or co-applied with the stimulus. After fixation, cells were permeabilized with 0.2% Triton X-100 (Sigma-Aldrich, Milan, Italy) and exposed overnight to a rabbit polyclonal antibody highly specific for PKCF. After extensive rinsing, PKCF was visualized with a secondary antibody (1:200 dilution Alexa Fluor 488 goat anti-rabbit, Thermo Fisher Scientific, Monza, Italy) applied for 2-4 hours at room temperature in the dark Cells showing PKCF translocation were detected with a confocal microscope (Leica SP2, Leica, Switzerland) by measuring fluorescence intensity along a line drawn through the cytoplasm and the membrane, thus avoiding the nucleus. Neurons in which fluorescence intensity at the plasma membrane throughout the cell was 1.5-fold or higher than the mean cytoplasmic intensity were considered positive.", "data": [{"smiles": "c1ccc2c(c1)OCC(C1=NCCN1)O2", "note": "(stereo not shown) [Idazoxan, idazoxan, reference compound]", "values": [{"measurement": "Effect of idazoxan on the block of PKCF translocation by CR4056", "value": "completely ineffective"}]}]}
